Experimental data published in US6355799B1, “Substituted benzene compounds, process for their preparation, and herbicidal and defoliant compositions containing them” (ISK Americas Incorporated, priority 1997, dated 2002).

Experiments:
Type in all cases: in vivo
[1] = test system: green foxtail (Setaria viridis, SETVI); test: Pre-emerge test, greenhouse herbicide activity screening; conditions: pre-emerge, rated 14 days after application, 0 = no damage, 100 = complete death
In short: (§1)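 Compounds in acetone were track-sprayed at 15–1000 g ai/ha: pre-emergence onto soil sown the previous day, then top-watered to incorporate and later bottom-watered; post-emergence onto 2–3 leaf plants with 0.25% v/v surfactant, bottom-watered only. Ratings on a 0–100 phytotoxicity scale were taken at day 14.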

[2] = test system: ivyleaf morningglory (Ipomoea hederacea, IPOHE); test: as above; conditions: pre-emerge, rated 14 days after application, 0 = no damage, 100 = complete death
In short: as §1

[3] = test system: lambsquarters (Chenopodium album, CHEAL); test: as above; conditions: pre-emerge, rated 14 days after application, 0 = no damage, 100 = complete death
In short: as §1

[4] = test system: sicklepod (Cassia obtusifolia, CASOB); test: as above; conditions: pre-emerge, rated 14 days after application, 0 = no damage, 100 = complete death
In short: as §1

[5] = test system: johnsongrass (Sorghum halepense, SORHA); test: as above; conditions: pre-emerge, rated 14 days after application, 0 = no damage, 100 = complete death
In short: as §1

[6] = test system: velvetleaf (Abutilon theophrasti, ABUTH); test: as above; conditions: pre-emerge, rated 14 days after application, 0 = no damage, 100 = complete death
In short: as §1

[7] = test system: barnyardgrass (Echinochloa crus-galli, ECHCG); test: as above; conditions: pre-emerge, rated 14 days after application, 0 = no damage, 100 = complete death
In short: as §1

[8] = test system: large crabgrass (Digitaria sanguinalis, DIGSA); test: as above; conditions: pre-emerge, rated 14 days after application, 0 = no damage, 100 = complete death
In short: as §1

[9] = test system: field corn (Zea mays L., var. Dekalb 535, CORN); test: Pre-emerge test, crop safety; conditions: pre-emerge, rated 14 days after application, 0 = no damage, 100 = complete death
In short: (§2)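 Fourteen days after spraying, crop and weed injury was graded visually from 0, no effect, to 100, every plant dead. Test substances were dissolved in acetone and applied at 15–1000 g ai/ha with a flat-fan nozzle. Application was either pre-emergence, one day after sowing, or post-emergence at the 2–3 leaf stage.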

[10] = test system: upland rice (Oryza sp., var. Tebonnet, RICE); test: Pre-emerge test, crop safety; conditions: pre-emerge, rated 14 days after application, 0 = no damage, 100 = complete death
In short: as §2

[11] = test system: green foxtail (Setaria viridis, SETVI); test: Post-emerge test, greenhouse herbicide activity screening; conditions: phytotoxicity rating 0-100 (0 no damage, 100 complete death), 14 days after application
In short: (§3)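 Compounds in acetone were track-sprayed at 15-1000 g ai/ha (187 l/ha) on sandy loam pots: pre-emerge one day after seeding, post-emerge at 2-3 leaf stage with 0.25% v/v non-ionic surfactant. Phytotoxicity was rated 14 days later on a 0 (no damage) to 100 (complete death) scale.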

[12] = test system: ivyleaf morningglory (Ipomoea hederacea, IPOHE); test: as above; conditions: phytotoxicity rating 0-100 (0 no damage, 100 complete death), 14 days after application
In short: as §3

[13] = test system: lambsquarters (Chenopodium album, CHEAL); test: as above; conditions: phytotoxicity rating 0-100 (0 no damage, 100 complete death), 14 days after application
In short: as §3

[14] = test system: redroot pigweed (Amaranthus retroflexus, AMARE); test: as above; conditions: phytotoxicity rating 0-100 (0 no damage, 100 complete death), 14 days after application
In short: as §3

[15] = test system: johnsongrass (Sorghum halepense, SORHA); test: as above; conditions: phytotoxicity rating 0-100 (0 no damage, 100 complete death), 14 days after application
In short: as §3

[16] = test system: velvetleaf (Abutilon theophrasti, ABUTH); test: as above; conditions: phytotoxicity rating 0-100 (0 no damage, 100 complete death), 14 days after application
In short: as §3

[17] = test system: barnyardgrass (Echinochloa crus-galli, ECHCG); test: as above; conditions: phytotoxicity rating 0-100 (0 no damage, 100 complete death), 14 days after application
In short: as §3

[18] = test system: large crabgrass (Digitaria sanguinalis, DIGSA); test: as above; conditions: phytotoxicity rating 0-100 (0 no damage, 100 complete death), 14 days after application
In short: as §3

[19] = test system: field corn (Zea mays L., var. Dekalb 535, CORN); test: Post-emerge test, crop safety; conditions: phytotoxicity rating 0-100 (0 no damage, 100 complete death), 14 days after application
In short: (§4)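 Rating: 0–100 visual injury, 14 DAA. Application: acetone, 187 l/ha, 15–1000 g ai/ha, flat-fan track sprayer with nozzle 40–45 cm above soil or canopy. Post-emerge runs used 0.25% v/v surfactant on 2–3 leaf plants.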

[20] = test system: upland rice (Oryza sp., var. Tebonnet, RICE); test: Post-emerge test, crop safety; conditions: phytotoxicity rating 0-100 (0 no damage, 100 complete death), 14 days after application
In short: as §4

[21] = test system: redroot pigweed (Amaranthus retroflexus, AMARE); test: Pre-emerge test, greenhouse herbicide activity screening; conditions: pre-emerge, rated 14 days after application, 0 = no damage, 100 = complete death
In short: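 Plants grown in 10 cm pots of sandy loam mix received acetone-dissolved compounds through a moving flat-fan nozzle. Doses ranged from 15 to 1000 g ai/ha. Pre-emerge pots were seeded one day earlier, post-emerge pots 8–21 days earlier. Fourteen days on, each pot was graded 0–100 for damage.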

Structure (SMILES): Cn1c(C(F)(F)F)cc(=O)n(-c2c(F)cc(Cl)c(OCC#N)c2NC(=O)C(F)(F)F)c1=O [2-11]
- Pre-emerge Herbicidal Activity SETVI (phytotoxicity rating, scale 0-100) ([1]; 63 g ai/ha): 0
- Pre-emerge Herbicidal Activity SETVI (phytotoxicity rating, scale 0-100) ([1]; 250 g ai/ha): 100
- Pre-emerge Herbicidal Activity IPOHE (phytotoxicity rating, scale 0-100) ([2]; 63 g ai/ha): 70
- Pre-emerge Herbicidal Activity IPOHE (phytotoxicity rating, scale 0-100) ([2]; 250 g ai/ha): 100
- Pre-emerge Herbicidal Activity CHEAL (phytotoxicity rating, scale 0-100) ([3]; 63 g ai/ha): 100
- Pre-emerge Herbicidal Activity CHEAL (phytotoxicity rating, scale 0-100) ([3]; 250 g ai/ha): 100
- Pre-emerge Herbicidal Activity CASOB (phytotoxicity rating, scale 0-100) ([4]; 63 g ai/ha): 0
- Pre-emerge Herbicidal Activity CASOB (phytotoxicity rating, scale 0-100) ([4]; 250 g ai/ha): 60
- Pre-emerge Herbicidal Activity SORHA (phytotoxicity rating, scale 0-100) ([5]; 63 g ai/ha): 0
- Pre-emerge Herbicidal Activity SORHA (phytotoxicity rating, scale 0-100) ([5]; 250 g ai/ha): 50
- Pre-emerge Herbicidal Activity ABUTH (phytotoxicity rating, scale 0-100) ([6]; 63 g ai/ha): 90
- Pre-emerge Herbicidal Activity ABUTH (phytotoxicity rating, scale 0-100) ([6]; 250 g ai/ha): 100
- Pre-emerge Herbicidal Activity ECHCG (phytotoxicity rating, scale 0-100) ([7]; 63 g ai/ha): 0
- Pre-emerge Herbicidal Activity ECHCG (phytotoxicity rating, scale 0-100) ([7]; 250 g ai/ha): 40
- Pre-emerge Herbicidal Activity DIGSA (phytotoxicity rating, scale 0-100) ([8]; 63 g ai/ha): 0
- Pre-emerge Herbicidal Activity DIGSA (phytotoxicity rating, scale 0-100) ([8]; 250 g ai/ha): 60
- Pre-emerge crop damage CORN (phytotoxicity rating, scale 0-100) ([9]; 63 g ai/ha): 0
- Pre-emerge crop damage CORN (phytotoxicity rating, scale 0-100) ([9]; 250 g ai/ha): 10
- Pre-emerge crop damage RICE (phytotoxicity rating, scale 0-100) ([10]; 63 g ai/ha): 10
- Pre-emerge crop damage RICE (phytotoxicity rating, scale 0-100) ([10]; 250 g ai/ha): 50
- Post-emerge Herbicidal Activity SETVI ([11]; 63 g ai/ha): 0
- Post-emerge Herbicidal Activity SETVI ([11]; 250 g ai/ha): 20
- Post-emerge Herbicidal Activity IPOHE ([12]; 63 g ai/ha): 50
- Post-emerge Herbicidal Activity IPOHE ([12]; 250 g ai/ha): 60
- Post-emerge Herbicidal Activity CHEAL ([13]; 63 g ai/ha): 40
- Post-emerge Herbicidal Activity CHEAL ([13]; 250 g ai/ha): 65
- Post-emerge Herbicidal Activity AMARE ([14]; 63 g ai/ha): 0
- Post-emerge Herbicidal Activity AMARE ([14]; 250 g ai/ha): 30
- Post-emerge Herbicidal Activity SORHA ([15]; 63 g ai/ha): 0
- Post-emerge Herbicidal Activity SORHA ([15]; 250 g ai/ha): 0
- Post-emerge Herbicidal Activity ABUTH ([16]; 63 g ai/ha): 80
- Post-emerge Herbicidal Activity ABUTH ([16]; 250 g ai/ha): 100
- Post-emerge Herbicidal Activity ECHCG ([17]; 63 g ai/ha): 0
- Post-emerge Herbicidal Activity ECHCG ([17]; 250 g ai/ha): 0
- Post-emerge Herbicidal Activity DIGSA ([18]; 63 g ai/ha): 0
- Post-emerge Herbicidal Activity DIGSA ([18]; 250 g ai/ha): 0
- Post-emerge Herbicidal Activity CORN (crop damage) ([19]; 63 g ai/ha): 5
- Post-emerge Herbicidal Activity CORN (crop damage) ([19]; 250 g ai/ha): 5
- Post-emerge Herbicidal Activity RICE (crop damage) ([20]; 63 g ai/ha): 0
- Post-emerge Herbicidal Activity RICE (crop damage) ([20]; 250 g ai/ha): 0
- Pre-emerge Herbicidal Activity AMARE (phytotoxicity rating, scale 0-100) ([21]; 63 g ai/ha): 30
- Pre-emerge Herbicidal Activity AMARE (phytotoxicity rating, scale 0-100) ([21]; 250 g ai/ha): 100
